Where two headings read alike, the source gives them in different places.

The nature of data set [1]: Chemical stability of the 4-methoxy analogue. The data set is classed as physicochemical. Conditions: releases isophosphoramide mustard rapidly.
The conditions of data set [2]: compared with the active metabolite of IFO; cited from earlier work.
In data set [3] the test system is several cell lines. Description: In vitro cytotoxicity over the panel of cell lines (MTS). Conditions: all cell lines tested, concentrations between 0.1 and 100 μM. From the text: Cytotoxicity of SQ-IFO and SQ-thio-IFO nanoparticles was studied in several cell lines:
• A549: human alveolar basal epithelial cell adenocarcinoma • MCF-7: human breast carcinoma • MCF-7 MDR: multidrug resistant human breast carcinoma • B16F10: mouse melanoma • KB 3.1: human epidermoid carcinoma • M109: mouse lung tumor cells • MiaPaCa-2: human pancreatic carcinoma • UW-479: human pediatric glioma • IGR OV1: human ovarian cancer • SK-N-MC: neuroblastoma, reclassified as Ewing (expression of EWS/Flip-1 oncogene)
The cell lines were maintained in DMEM or RPMI medium supplemented with 10% fetal calf serum and 1% antibiotics (100 U/mL penicillin and 100 μg/mL streptomycin) in an incubator at 37° C. in a humid 5% carbon dioxide atmosphere.
The cells were seeded in 96-well plates (TPP). Seeding was optimized for each line for an incubation time of 72 hours.
A549, MCF-7, B16F10, M109, MiaPaCa-2 cells were seeded at 5·10^3 cells/well. […] cells were seeded at 2·10^3 cells/well, IGR-OV1 cells at 10^4 cells/well and UW479 and SK-N-MC cells at 5·10^4 cells/well.
The compounds SQ-IFO and SQ-thio-IFO were synthesized according to the protocol described above. For each compound, an aqueous suspension of nanoparticles was prepared using the technique described by Fessi, Int. J. Pharm, 1989, 55, R1-R4.
For each compound, different concentrations between 0.1 and 100 μM were tested by serial dilution of a 2 mg/mL stock solution for SQ-IFO and a 10 mg/mL stock solution for SQ-thio-IFO in culture medium.
After 72 hours of incubation, cell viability was determined by observing the reduction of MTS reagent to formazan (CellTiter 96 AQueous One Solution kit, Promega). 20 μL of a 5 mg/mL solution of MTS in PBS were added per well. The incubation time of the MTS was optimized for each cell line; the absorbance at 490 nm was then read using a plate reader (EL808, Biotek).
The results are expressed as percentage of untreated cells. The data were treated with Prism 4 software (Graph Pad Software, San Diego). IC50 values were thus calculated for each line. Ifosfamide and squalenol were used as controls.

Data set [4] deals with IGR-OV1 (Ovary). Description: In vitro cytotoxicity, MTS cell viability test, 72 h. The data set is classed as cell-based, human. To be noted: for IC50: Homo sapiens; for cytotoxic activity (in words): IGR-OV1 (Ovary) cells. As to the method:
(§1) The cells were seeded in 96-well plates (TPP).
(§2) J. Pharm, 1989, 55, R1-R4.
(§3) The results are expressed as percentage of untreated cells. […] IC50 values were thus calculated for each line. Ifosfamide and squalenol were used as controls.
In general terms: Tetrazolium dyes change colour on reduction, which living cells bring about.

The test system of data set [5] is UW 479 (Glioma). Described as above. The data set is classed as cell-based, human. To be noted: for IC50: Homo sapiens; for cytotoxic activity (in words): UW 479 (Glioma) cells. The method, then:
as §1, §2, §3

Data set [6] is described as follows: Nanoparticle size in aqueous medium. The data set is classed as physicochemical. To be noted: for average size of nanoparticles: aqueous suspension prepared by the technique of Fessi, spherical; for size of nanoparticles: self-assembly in an aqueous medium.
From the text: For example, the most recent and most promising application concerns the attachment of a squalene residue by this method by adding squalenol or squalene-thiol in the presence of BF3ET2O on the phosphoryl-iminium produced from 4-methoxy-MFI (Schemes 7 and 8). The compounds formed, SQ-4-O-MFI and SQ-4-S-MFI, have two interesting properties. The first is that they are pre-activated forms of MFI due to oxidation in position 4 that can release, in a slightly acidic aqueous medium, the alkylating mustard directly without metabolic activation. The second is that they are capable of self-assembly in an aqueous medium in the form of nanoparticles of a size of about 160 nm.
as §2

Data set [7] has as its system RD human pediatric rhabdomyosarcoma model. Description: In vivo efficacy, human rhabdomyosarcoma xenografted in nude mice. To be noted: RD xenograft, treated when tumor volume >80 mm^3, preliminary results. As to the method:
In vivo cytotoxic efficacy was evaluated first on a model of human rhabdomyosarcoma xenografted in nude mice. The model used is the RD human pediatric rhabdomyosarcoma model. The cells were first amplified in culture and counted. 10·10^6 cells were injected subcutaneously in both flanks of each mouse. After graft uptake, when tumor volume reached >80 mm^3, the mice were treated with IFO-SQ or placebo.
On the technique in general: Xenograft models place foreign cells or tissue in a host animal.

Data set [8] has as its system MiaPaCa-2. Description: In vitro cytotoxicity, MTS cell viability test, 72 h. The data set is classed as cell-based. Conditions: Homo sapiens. As to the method:
as §1, §2, §3

Data set [9] concerns B16F10. Described as above. The data set is classed as cell-based. Conditions: Mus musculus. The method, then: as §1, §2, §3
In data set [10] the test system is SK-N-MC (Ewing). The data set is described as above. The data set is classed as cell-based. To be noted: for IC50: Homo sapiens; for cytotoxic activity (in words): SK-N-MC (Ewing) cells. As to the method:
as §1, §2, §3

The test system of data set [11] is A549. Described as above. The data set is classed as cell-based. Conditions: Homo sapiens. The method, then:
as §1, §2, §3

The test system of data set [12] is KB 3.1. The description is as above. The data set is classed as cell-based. Conditions: Homo sapiens. The method, then:
as §1, §2, §3

The subject of data set [13] is MCF-7 MDR. The description is as above. The data set is classed as cell-based. To be noted: Homo sapiens. The method, then: as §1, §2, §3
The subject of data set [14] is MCF-7. The description is as above. The data set is classed as cell-based. Conditions: Homo sapiens. As to the method:
as §1, §2, §3

Data set [15] deals with M109. The data set is described as above. Conditions: for cytotoxic activity (in words): M109 cell line; for IC50: Mus musculus. The data set is classed as cell-based, mouse. The method, then:
as §1, §2, §3

With `COC1CCOP(=O)(NCCCl)N1CCCl` (stereo not shown) [4-MeO-IFO, 4-methoxy-ifosfamide], the chemical stability entry in data set [1] is reported as “quite unstable”. Besides, the cytotoxic potency result in [2] was “equivalent to that of the active metabolite of IFO”.

Take tris-nor-squalenol [reference compound]: the “in vitro cytotoxicity (in words)” value in [3] is given as “did not exhibit significant cytotoxicity”.

One may read the IC50 as the concentration at which inhibition is half-maximal. For `CC(C)=CCC/C(C)=C/CC/C(C)=C/CC/C=C(\C)CC/C=C(\C)CCCOC1CCOP(=O)(NCCCl)N1CCCl` (stereo not shown) [Ifosfamide SQ], the IC50 in data set [4] (IGROV-1, 72 h) was greater than 100 µM; in data set [5] (72 h), greater than 100 µM; in data set [8] (MIA PaCa-2, 72 h) it was 32.5 µM; in data set [9] (B16-F10, 72 h), 73 µM; in data set [10] (SK-N-MC, 72 h), greater than 100 µM; in data set [11] (A549, 72 h) it was 32.5 µM. In addition, the IC50 was 50 µM in data set [12] (KB 3-1, 72 h); 78.8 µM in data set [13] (MCF7, 72 h); 43.6 µM in [14] (MCF7, 72 h); greater than 100 µM in data set [15] (M109, 72 h). For the same compound, the “cytotoxic activity (in words)” value in data set [4], in data set [5], in data set [10] and in [15] was “not observed” each time. In addition, in [6], the “average size of nanoparticles” value came out at 182 nm. In data set [6], the size of nanoparticles result was “about 160 nm”. Besides, in data set [7], the “tumor volume compared to mice treated with placebo” value was “significant decrease in tumor volume”. Moreover, the “in vitro cytotoxicity (in words)” value in data set [3] is recorded as “high in vitro cytotoxicity”.

On to `O=P1(NCCCl)OCCCN1CCCl` (stereo not shown) [Ifosfamide, reference compound], for which the IC50 in data set [4] (IGROV-1, IGR-OV1 (Ovary), 72 h incubation, nanoparticle suspension, MTS, read-out: IC50) is greater than 100 µM; in data set [5] (UW 479 (Glioma), 72 h incubation, nanoparticle suspension, MTS, read-out: IC50), greater than 100 µM; in data set [8] (MIA PaCa-2, MiaPaCa-2, 72 h incubation, nanoparticle suspension, MTS, read-out: IC50), greater than 100 µM; in data set [9] (B16-F10, B16F10, 72 h incubation, nanoparticle suspension, MTS, read-out: IC50), greater than 100 µM; in data set [10] (SK-N-MC (Ewing), 72 h incubation, nanoparticle suspension, MTS, read-out: IC50) it was greater than 100 µM; in data set [11] (A549, 72 h incubation, nanoparticle suspension, MTS, read-out: IC50), greater than 100 µM. Also, the IC50 in data set [12] (KB 3-1, KB 3.1, 72 h incubation, nanoparticle suspension, MTS, read-out: IC50) is greater than 100 µM; in [13] (MCF7, MCF-7 MDR, 72 h incubation, nanoparticle suspension, MTS, read-out: IC50), greater than 100 µM; in [14] (MCF7, MCF-7, 72 h incubation, nanoparticle suspension, MTS, read-out: IC50), greater than 100 µM; in data set [15] (M109, 72 h incubation, nanoparticle suspension, MTS, read-out: IC50) it was greater than 100 µM. Besides, the “in vitro cytotoxicity (in words)” value in data set [3] is “did not exhibit significant cytotoxicity”.

Turning to `CC(C)=CCC/C(C)=C/CC/C(C)=C/CC/C=C(\C)CC/C=C(\C)CCC(=O)NCCSC1CCOP(=O)(NCCCl)N1CCCl` (stereo not shown) [Ifosfamide-thio-SQ, (2-chloro-ethyl)-[3-(2-chloro-ethyl)-2-oxo-4-mercaptoethylamidosqualen-[1,3,2]oxazaphosphinan-2-yl]-amine], the IC50 in data set [4] (IGROV-1, 72 h) came to 81 µM; in data set [5] (72 h) it was 65 µM; in [8] (MIA PaCa-2, 72 h), 4.4 µM; in data set [9] (B16-F10, 72 h), 16.9 µM; in data set [10] (SK-N-MC, 72 h), 19 µM; in data set [11] (A549, 72 h), 5.3 µM. Moreover, the IC50 came out at 2.96 µM in data set [12] (KB 3-1, 72 h); 80 µM in data set [13] (MCF7, 72 h); 10.9 µM in data set [14] (MCF7, 72 h); 9.2 µM in [15] (M109, 72 h). In addition, the “cytotoxic activity (in words)” value in data set [4], in [5], in data set [10] and in data set [15] was “high cytotoxic activity” each time. Also, the “average size of nanoparticles” value in data set [6] stood at 182 nm. Further, the size of nanoparticles entry in data set [6] is recorded as “about 160 nm”. Also, in [3], the “in vitro cytotoxicity (in words)” value is “high in vitro cytotoxicity”.

The record behind these values is patent publication US10125157B2, “Derivatives of oxazaphosphorines that are pre-activated, use and method of preparation” (priority 2010, dated 2018).
